# Data: paper PMC9491098, “Discovery of novel drug-like antitubercular hits targeting the MEP pathway enzyme DXPS by strategic application of ligand-based virtual screening” (Chemical Science, 2022)
# Values joined by “and” are separate entries in the source; they are usually repeats but may differ in a detail not shown here. Identical values can stand only once. Like-named read-outs stand apart in the source and are kept apart here.
# Tests used:
# HEK293 = assay: toxicity against human cell lines; assay type: cell-based; settings: HEK293, 48 h, read-out: Toxicity Human cell lines EC50 (μM) HEK293
# A549 = assay: toxicity against human cell lines; assay type: cell-based; settings: A549, 48 h, read-out: Toxicity Human cell lines EC50 (μM) A549
# MtDXPS [1] = target: T1, MtDXPS (Mycobacterium tuberculosis, UniProt P9WNS3); assay: microscale thermophoresis (MST) dissociation constant; assay type: binding; settings: Fig. 4F
# T1 sequence (P9WNS3 whole entry, looked up): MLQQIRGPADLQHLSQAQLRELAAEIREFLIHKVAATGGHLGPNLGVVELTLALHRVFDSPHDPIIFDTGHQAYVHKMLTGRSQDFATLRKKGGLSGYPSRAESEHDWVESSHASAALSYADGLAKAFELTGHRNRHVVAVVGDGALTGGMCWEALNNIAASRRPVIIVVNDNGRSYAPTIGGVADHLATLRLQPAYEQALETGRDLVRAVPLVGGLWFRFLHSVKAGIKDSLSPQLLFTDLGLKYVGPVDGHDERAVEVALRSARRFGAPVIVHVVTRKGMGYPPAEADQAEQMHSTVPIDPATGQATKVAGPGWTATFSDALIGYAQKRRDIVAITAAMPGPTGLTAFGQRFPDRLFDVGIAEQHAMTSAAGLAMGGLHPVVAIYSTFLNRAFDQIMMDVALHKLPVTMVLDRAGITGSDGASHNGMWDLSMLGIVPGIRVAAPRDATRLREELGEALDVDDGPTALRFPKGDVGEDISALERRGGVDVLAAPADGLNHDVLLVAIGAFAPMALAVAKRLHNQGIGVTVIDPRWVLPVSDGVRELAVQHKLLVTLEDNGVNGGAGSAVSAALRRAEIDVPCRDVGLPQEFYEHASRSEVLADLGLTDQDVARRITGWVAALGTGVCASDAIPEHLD
# Procedure: ETB + A <===> ETAB : Ka2 (Ka2 is the dissociation constant of pyruvate with […]
# ETA + B <===> ETAB : Kb2 (Kb2 is the dissociation constant of ThDP with DXPS) E + I <===> EI* : Ki* (Ki* is the Morrison inhibition constant of inhibitor with apoDXPS) ETAB ---> ET + P : kcat (kcat is the catalytic constant of DXPS) […]
# microscale thermophoresis (MST)
# MST measurements were performed on a Monolith NT.115 (NanoTemper
# Technologies GmbH, Germany) instrument using red-dye-NHS fluorescent labeling.
# Each purified MtDXPS sample was labeled with red-dye-NHS second generation dye, according to the supplied protocol. Measurements were performed in 100 m M Tris-HCl (pH 7.6) containing 0.05% Tween-20 and 5% DMSO in premium treated capillaries.
# The final concentration of each labeled protein in the assay was 100 n M. The inhibitors were titrated in 1:1 dilutions according to the supplier’s recommendations. All binding reactions were incubated at room temperature for 30 min before loading, and then pre-incubated for 5 min at room temperature after loading into the capillaries. Experiments were performed in duplicates, using 40% LED power, medium MST power, laser on time 20 s, and laser off time 3 s. Kds of the inhibitors were extracted from raw data at a 10–20 s on time according to the manufacturer’s instructions. A denaturation test was performed to exclude any nonspecific spectral interactions between the inhibitors […]
# The solutions were vortexed, and then the rest of the assay components was added in the following order: HEPES, pH = 8 (100 m M), bovine serum albumin (1 mg/mL), cysteine (2 mM), ThDP (0.325 μM), coenzyme-A (150 μM), TCEP (300 μM), pyruvate (150 μM) and MgCl2 (1 mM). […] Porcine PDH (final concentration of 0.01 U/ mL) was then added to initiate the reactions, which were monitored spectrophotometrically by measuring the […]
# MtDXPS [2] = target: T1, MtDXPS
# HepG2 = assay: toxicity against human cell lines; assay type: cell-based; settings: HepG2, 48 h, read-out: Toxicity Human cell lines EC50 (μM) HepG2
# [3] = system: E. coli strain BL21 (DE3) pET22b-H6[…]; assay: microbe, parasite or virus in culture; assay type: cell-based; settings: Escherichia coli, Fig. 6B
# MtDXPS [4] = target: T1, MtDXPS; assay: biochemical; settings: for mode of inhibition on MtDXPS: MOI study, comparison of IC50 under varied [ThDP], [PYR], [D-GAP]; for equilibration time (slow-binding): time-dependent progress curves, Fig. 4A, inhibitor 100 µM
# zebrafish larvae = assay: toxicity against zebrafish larvae; assay type: in vivo; settings: Table S4, 10 larvae per condition
# MtDXPS [5] = target: T1, MtDXPS; assay: biochemical
# DrDXPS (WT) = DrDXPS (WT) (Deinococcus radiodurans, UniProt Q9RUB5); assay: biochemical; assay type: biochemical; settings: IC50, Fig. 5F/G, DrDXPS (WT)
# DrDXPS (WT), sequence (Q9RUB5 whole entry, looked up): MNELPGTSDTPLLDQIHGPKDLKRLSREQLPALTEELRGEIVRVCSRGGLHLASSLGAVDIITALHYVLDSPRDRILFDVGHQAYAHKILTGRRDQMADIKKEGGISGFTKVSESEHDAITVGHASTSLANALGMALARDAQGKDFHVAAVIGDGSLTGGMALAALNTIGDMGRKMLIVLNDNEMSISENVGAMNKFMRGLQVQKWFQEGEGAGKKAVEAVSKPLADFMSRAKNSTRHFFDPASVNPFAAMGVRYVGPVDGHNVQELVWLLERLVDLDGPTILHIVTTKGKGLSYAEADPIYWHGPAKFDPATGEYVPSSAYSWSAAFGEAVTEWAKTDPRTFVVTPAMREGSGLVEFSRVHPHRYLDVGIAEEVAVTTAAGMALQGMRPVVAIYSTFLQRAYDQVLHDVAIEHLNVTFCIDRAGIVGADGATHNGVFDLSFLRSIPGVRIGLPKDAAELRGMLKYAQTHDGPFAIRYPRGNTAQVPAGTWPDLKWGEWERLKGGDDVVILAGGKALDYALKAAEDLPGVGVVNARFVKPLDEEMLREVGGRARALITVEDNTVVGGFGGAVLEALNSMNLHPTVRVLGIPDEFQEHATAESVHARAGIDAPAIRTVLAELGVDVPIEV
# [6] = metabolic stability in human liver S9 fraction; settings: pooled liver S9 fraction
# Procedure: For vitro assessment of metabolic stability, 10 µL of each compound (10 µM) was
# incubated with human pooled liver S9-fraction (1 mg/mL, Corning, Corning, NY, USA)
# in a master mix containing 2 mM NADP, 10 mM glucose-6-phosphate, 10 U/mL
# glucose-6-phosphate dehydrogenase, 1 mM UDPGA, 0.1 mM PAPS, 10 mM MgCl2.
# acetonitrile containing diphenhydramine as internal standard at 4 °C. The supernatant
# was used for LC-MS analysis and half life time t1/2 was calculated from decreasing
# concentrations/peak areas.
# LC conditions: samples were analyzed with an Ultimate 3000 HPLC (Thermo Fisher,
# Waltham, MA, USA) coupled to a TSQ Quantum Access Max triple quadrupole mass
# spectrometer (Thermo Fisher, Waltham, MA, USA) in SRM mode. Analysis was
# performed on a Nucleodur C18 Pyramid column (3 µm, 2x150 mm, Macherey-Nagel,
# Düren, Germany) with a flow of 0.6 mL/min and a water (0.1% formic acid) and
# acetonitrile (0.1% formic acid) eluent system. Gradient as follows: 10% acetonitrile for
# 1 min, 10–90% acetonitrile over 0.7 min, 90% acetonitrile for 1.8 min, equilibration at
# 10% acetonitrile for 1 min.
# MS conditions: calibration of mass spectrometer parameters was performed
# individually for each compound:
# E. coli TolC = assay: microbe, parasite or virus in culture; assay type: cell-based; settings: Escherichia coli
# M. tuberculosis strains = assay: MIC against multiple M. tuberculosis strains, absolute concentration method on 7H10 agar; assay type: cell-based; settings: Mycobacterium tuberculosis
# [7] = system: E. coli strain BL21 (DE3) pQEYAEM; assay: microbe, parasite or virus in culture; assay type: cell-based; settings: Escherichia coli, Fig. 6A
# [8] = [IPTG] 0.5 mM (MtDXPS overexpression)
# [9] = Morrison constant Ki* against MtDXPS, two-step tight-binding Morrison model, Dynafit, text and Fig. 4C–E
# [10] = [ThDP] 0.1 μM (1.6x Km), [PYR] 0.5 mM (2.4x), [D-GAP] […] (1.5x)
# [11] = [ThDP] 0.1 μM (1.6x Km), [PYR] […] (1.2x), [D-GAP] 0.5 mM (2.9x)
# [12] = [ThDP] 0.1 μM (1.6x Km), [PYR] […] (1.2x), [D-GAP] […] (1.5x)
# [13] = [ThDP] 0.2 μM (3.2x Km), [PYR] […] (1.2x), [D-GAP] […] (1.5x)
# [14] = read-out: Antitubercular activity Strain & MIC (μM) A
# [15] = read-out: Antitubercular activity Strain & MIC (μM) B
# [16] = read-out: Antitubercular activity Strain & MIC (μM) C
# [17] = read-out: Antitubercular activity Strain & MIC (μM) D
# [18] = read-out: Antitubercular activity Strain & MIC (μM) E
# [19] = read-out: Antitubercular activity Strain & MIC (μM) F
# [20] = susceptible, DR, MDR and XDR strains, read-out: antitubercular activity (MIC) against multiple M. tuberculosis strains
# [21] = [IPTG] 0.5 mM (E. coli IspC overexpression)
structure (smiles),measurement,setting,value
ON=C(Cc1ccc(Cl)cc1)c1ccc(O)cc1O [Compound 9],EC50,HEK293,> 50 µM
same,EC50,A549,> 50 µM
same,Kd,MtDXPS [1],221 nM and 200 nM
same,hit validation (false-positive check),MtDXPS [2],true inhibitors
same,EC50,HepG2,> 50 µM
same,MIC,[3]; [IPTG] 0 mM,15 ± 1 µM
same,MIC,[3]; [8],> 200 µM
same,IC50,MtDXPS [4]; IC50 (μM),44 ± 8 µM
same,IC50,MtDXPS [4]; IC50 against MtDXPS,140 ± 12 µM
same,IC50,MtDXPS [4]; IC50 against MtDXPS (MOI study),17 µM and 35 µM and 58 µM and 121 µM
same,mode of inhibition on MtDXPS,MtDXPS [4],competitive with ThDP and both substrates
same,equilibration time (slow-binding),MtDXPS [4],~100 s
same,number of living zebrafish larvae,"zebrafish larvae; 2 µM, 24 h (2 dpf)",10
same,number of living zebrafish larvae,"zebrafish larvae; 2 µM, 48 h (3 dpf)",10
same,number of living zebrafish larvae,"zebrafish larvae; 2 µM, 72 h (4 dpf)",10
same,number of living zebrafish larvae,"zebrafish larvae; 2 µM, 96 h (5 dpf)",10
same,number of living zebrafish larvae,"zebrafish larvae; 10 µM, 24 h (2 dpf)",10
same,number of living zebrafish larvae,"zebrafish larvae; 10 µM, 48 h (3 dpf)",10
same,number of living zebrafish larvae,"zebrafish larvae; 10 µM, 72 h (4 dpf)",10
same,number of living zebrafish larvae,"zebrafish larvae; 10 µM, 96 h (5 dpf)",10
same,number of living zebrafish larvae,"zebrafish larvae; 30 µM, 24 h (2 dpf)",10
same,number of living zebrafish larvae,"zebrafish larvae; 30 µM, 48 h (3 dpf)",10
same,number of living zebrafish larvae,"zebrafish larvae; 30 µM, 72 h (4 dpf)",10
same,number of living zebrafish larvae,"zebrafish larvae; 30 µM, 96 h (5 dpf)",10
same,number of living zebrafish larvae,"zebrafish larvae; 100 µM, 24 h (2 dpf)",5
same,number of living zebrafish larvae,"zebrafish larvae; 100 µM, 48 h (3 dpf)",2
same,number of living zebrafish larvae,"zebrafish larvae; 100 µM, 72 h (4 dpf)",0
same,number of living zebrafish larvae,"zebrafish larvae; 100 µM, 96 h (5 dpf)",0
same,Ki,"MtDXPS [5]; K i* (μM), Table 1B, oxime derivatives, MtDXPS",0.3 ± 0.02 µM
same,Ki,MtDXPS [5]; [9],0.271 µM and 0.2 to 0.3 µM
same,IC50,DrDXPS (WT); [10],59 ± 10 µM
same,IC50,DrDXPS (WT); [11],70 ± 11 µM
same,IC50,DrDXPS (WT); [12],33 ± 4 µM
same,IC50,DrDXPS (WT); [13],54 ± 7 µM
same,half-life at 10 µM,[6],20 min
same,MIC,E. coli TolC,21.9 ± 1.3 µM
same,MIC,M. tuberculosis strains; [14],10 µM
same,MIC,M. tuberculosis strains; [15],10 µM
same,MIC,M. tuberculosis strains; [16],10 µM
same,MIC,M. tuberculosis strains; [17],10 µM
same,MIC,M. tuberculosis strains; [18],10 µM
same,MIC,M. tuberculosis strains; [19],5 to 10 µM
same,MIC,M. tuberculosis strains; [20],5 to 10 µM
same,MIC,[7]; [IPTG] 0 mM,12 ± 3 µM
same,MIC,[7]; [21],10 ± 1 µM
Cc1nc(N)sc1-c1csc(Nc2ccc(C(F)(F)F)cc2)n1 [Compound 10],EC50,HEK293,25 to 50 µM
same,EC50,A549,> 50 µM
same,Kd,MtDXPS [1],206 nM and 200 nM
same,hit validation (false-positive check),MtDXPS [2],true inhibitors
same,EC50,HepG2,> 50 µM
same,MIC,[3]; [IPTG] 0 mM,13 ± 1 µM
same,MIC,[3]; [8],35 ± 3 µM
same,IC50,MtDXPS [4]; IC50 (μM),32 ± 3 µM
same,IC50,MtDXPS [4]; IC50 against MtDXPS,118 ± 10 µM
same,mode of inhibition on MtDXPS,MtDXPS [4],competitive with ThDP and both substrates
same,equilibration time (slow-binding),MtDXPS [4],~100 s
same,number of living zebrafish larvae,"zebrafish larvae; 2 µM, 24 h (2 dpf)",10
same,number of living zebrafish larvae,"zebrafish larvae; 2 µM, 48 h (3 dpf)",10
same,number of living zebrafish larvae,"zebrafish larvae; 2 µM, 72 h (4 dpf)",10
same,number of living zebrafish larvae,"zebrafish larvae; 2 µM, 96 h (5 dpf)",10
same,number of living zebrafish larvae,"zebrafish larvae; 10 µM, 24 h (2 dpf)",10
same,number of living zebrafish larvae,"zebrafish larvae; 10 µM, 48 h (3 dpf)",10
same,number of living zebrafish larvae,"zebrafish larvae; 10 µM, 72 h (4 dpf)",10
same,number of living zebrafish larvae,"zebrafish larvae; 10 µM, 96 h (5 dpf)",10
same,number of living zebrafish larvae,"zebrafish larvae; 30 µM, 24 h (2 dpf)",2
same,number of living zebrafish larvae,"zebrafish larvae; 30 µM, 48 h (3 dpf)",0
same,number of living zebrafish larvae,"zebrafish larvae; 30 µM, 72 h (4 dpf)",0
same,number of living zebrafish larvae,"zebrafish larvae; 30 µM, 96 h (5 dpf)",0
same,number of living zebrafish larvae,"zebrafish larvae; 100 µM, 24 h (2 dpf)",0
same,number of living zebrafish larvae,"zebrafish larvae; 100 µM, 48 h (3 dpf)",0
same,number of living zebrafish larvae,"zebrafish larvae; 100 µM, 72 h (4 dpf)",0
same,number of living zebrafish larvae,"zebrafish larvae; 100 µM, 96 h (5 dpf)",0
same,Ki,"MtDXPS [5]; K i* (μM), Table 1C, aminothiazole derivatives, MtDXPS",0.2 ± 0.02 µM
same,Ki,MtDXPS [5]; [9],0.212 µM and 0.2 to 0.3 µM
same,IC50,DrDXPS (WT); [10],108 ± 20 µM
same,IC50,DrDXPS (WT); [11],132 ± 22 µM
same,IC50,DrDXPS (WT); [12],60 ± 11 µM
same,IC50,DrDXPS (WT); [13],81 ± 12 µM
same,half-life at 10 µM,[6],> 60 min
same,MIC,E. coli TolC,22.2 ± 3.1 µM
same,MIC,M. tuberculosis strains; [14],> 10 µM
same,MIC,M. tuberculosis strains; [15],5 µM
same,MIC,M. tuberculosis strains; [16],5 µM
same,MIC,M. tuberculosis strains; [17],10 µM
same,MIC,M. tuberculosis strains; [18],5 to 10 µM
same,MIC,M. tuberculosis strains; [19],5 to 10 µM
same,MIC,M. tuberculosis strains; [20],5 to 10 µM
same,MIC,[7]; [IPTG] 0 mM,15 ± 3 µM
same,MIC,[7]; [21],17 ± 2 µM
